US10183944B2 (Asana Biosciences, LLC, priority 2011, dated 2019)
Values joined by “and” are separate entries in the source; they are usually repeats but may differ in a detail not shown here. Identical values can stand only once. Marks after values point to notes of the source that are not given here.

Tested on: Arthus reaction in female c57BL/6 mice
Experiment: In vivo acute study: Arthus reaction model in mice
Set-up: species or system mouse
Settings: for OD % Inhibition: dye extravasation (OD 610 nm)
Excerpt: Arthus reaction is a type of local type III hypersensitivity reaction. Type III hypersensitivity reactions are immune complex-mediated, and involve the deposition of antigen/antibody complexes mainly in the vascular walls, serosa (pleura, pericardium, synovium), and glomeruli. This involves formation of antigen/antibody complexes after the intradermal injection of an antibody. If the animal was previously injected with antigen and dye (has circulating antigen), an Arthus reaction occurs. This manifests as local vasculitis due to deposition of immune complexes in dermal blood vessels. Activation of complement and recruitment of PMNs ensue, resulting in an inflammatory response and extravasation of dye to the skin. Compounds which can inhibit this complex process can have therapeutic implications in wide range of inflammatory and auto-immune disorders. See, Pine, “Inflammation and bone erosion are suppressed in models of rheumatoid arthritis following treatment with a novel Syk inhibitor”; Clin. Immunol. (2007) 124 (3): 244-57; and Sylvia, “R-406, an Orally Available Spleen Tyrosine Kinase Inhibitor Blocks Fc Receptor Signaling and Reduces Immune Complex-Mediated Inflammation”, JPET 319:998-1008, 2006, which are herein incorporated by reference.
Female c57BL/6 mice were given an antigen injection in which the antigen was 0.1% Ovalbumin (OVA) in PBS containing 1% Evans blue (EB) at the concentration of 10 mL/kg intravenously under Isoflurane anesthesia [2.5 mg/mouse with a body weight of 25 g]. Ten minutes after antigen injection; the animals were injected with the rabbit anti-OVA IgG (50 μg in 25 μL/site) (Polysciences; Cat #23744) intradermally on the shaved back at two top locations. Animals were also injected with phosphate buffered saline (PBS, 25 μL) intradermally on the back at two bottom and opposite locations to serve as negative control. The mice were euthanized by cervical dislocation 4 hours after antigen (Ovalbumin) challenge. Skin tissue was assessed for edema by tracing the edema area on to a transparent plastic sheet. Punch biopsies of the injection sites were collected.
Edema area was measured manually by scale. Two diameters were taken and averaged for each animal.
Punch biopsies of the injection sites (using 10 mm skin biopsy punches) were incubated in 2 mL of sodium sulfate: acetone mixture (0.6+1.4 mL) at room temperature for 16-18 hours. The supernatants were removed from digested tissues by centrifuging at 4000 rpm for 10 minutes, filtered and were read spectrophotometrically at 610 nm.
The percent inhibition of dye leakage was calculated with respect to control by the formula: […]
The percent inhibition of edema area was calculated with respect to control by the formula: […]
Means of different groups were compared with control using One way ANOVA followed by Dunnett's test. Significance was represented as follows.

Structure (SMILES) | Edema area % Inhibition (dose 3 mg/Kg) | Edema area % Inhibition (dose 10 mg/Kg, hydrochloride) | Edema area % Inhibition (dose 30 mg/Kg, hydrochloride) | OD % Inhibition (dose 3 mg/Kg) | OD % Inhibition (dose 30 mg/Kg, hydrochloride) | Edema area % Inhibition (dose 10 mg/Kg) | Edema area % Inhibition (dose 30 mg/Kg) | OD % Inhibition (dose 10 mg/Kg) [%] | OD % Inhibition (dose 30 mg/Kg)
Cl.O=c1[nH]ncc2nc(-c3ccccc3)nc(Nc3ccc(CN4CCNCC4)cc3)c12 [Example 7, 2-phenyl-4-(4-(piperazin-1-ylmethyl)phenylamino)pyrimido[4,5-d]pyridazin-5(6H)-one hydrochloride] | 41*** % | 45*** % and 53*** % and 30% | 68*** % and 74*** % | 40*** % | 67*** % and 65*** % | – | – | – | –
O=C(O)C1CCN(c2ccc(Nc3nc(-c4ccccc4)nc4cn[nH]c(=O)c34)cc2)CC1 [Example 13, 1-(4-(5-oxo-2-phenyl-5,6-dihydropyrimido[4,5-d]pyridazin-4-ylamino)phenyl)piperidine-4-carboxylic acid] | – | – | – | – | – | 53*** % | 40** % | 27 | 30%
O=C(O)C1CC12CCN(c1ccc(Nc3nc(-c4ccccc4)nc4cn[nH]c(=O)c34)cc1)CC2 (stereo not shown) [Example 19, 6-(4-(5-oxo-2-phenyl-5,6-dihydropyrimido[4,5-d]pyridazin-4-ylamino)phenyl)-6-azaspiro[2.5]octane-1-carboxylic acid] | 48*** % | – | – | 53*** % | – | – | 60*** % | – | 60*** %
